# The source made the active and inactive calls. The rule behind the calls is not given here.
# Columns and labels:
# SW982 [1] = assay: Inhibition of PGE2 release from bradykinin-stimulated human SW982 cells by fluorescence assay; assay type: functional, cell-based
# SW982 [2] = assay: Growth inhibition of human SW982 cells up to 30 uM after 48 hrs by cell counting; assay type: functional, cell-based
Structure (SMILES),IC50 (SW982 [1]) [nM],inhibition (SW982 [1]),growth inhibition (GI) (SW982 [2])
CS(=O)(=O)c1ccc(-n2nc(C(F)(F)F)cc2-c2ccc(F)cc2)cc1 [SC-58125],33,–,–
COC1=C(C)C(=O)c2ccc(O[C@@H]3O[C@@H](C)[C@H](O)[C@@H](O)[C@H]3O)c(NNC(C)=O)c2C1=O [SACCHATHRIDINE A],1000,Dose-dependent effect,inactive
